Assay results as given in the CheMixHub viscosity set.
± gives the uncertainty stated by the source.

Experiment: xn = mol fraction of the nth substance listed

O=C(C=Cc1ccccc1)c1ccccc1 + CCO
viscosity [mPa·s], 101 kPa
Settings	x1 = 0.000144	x1 = 0.000288	x1 = 0.0005755	x1 = 0.00115	x1 = 0.002298	x1 = 0.004586
298.15 K	1.102 ± 0.0087	1.141 ± 0.009	1.216 ± 0.0095	1.256 ± 0.0098	1.283 ± 0.01	1.356 ± 0.011
303.15 K	1.01 ± 0.008	1.049 ± 0.0083	1.115 ± 0.0088	1.156 ± 0.0091	1.181 ± 0.0093	1.255 ± 0.0098
308.15 K	0.9181 ± 0.0073	0.9561 ± 0.0076	1.014 ± 0.0081	1.056 ± 0.0084	1.079 ± 0.0085	1.154 ± 0.0091

CCOC(=O)c1ccccc1 + CCOC(C)=O
298.15 K, 101 kPa
Settings	viscosity [mPa·s]
x2 = 0.1216	1.704 ± 0.022
x2 = 0.2088	1.514 ± 0.02
x2 = 0.3131	1.292 ± 0.017
x2 = 0.3973	1.157 ± 0.015
x2 = 0.5044	0.9851 ± 0.013
x2 = 0.5998	0.8478 ± 0.011
x2 = 0.6989	0.7247 ± 0.0096
x2 = 0.7997	0.6178 ± 0.0083
x2 = 0.8992	0.5188 ± 0.007

CCn1cc[n+](C)c1.N#C[S-] + CCOS(=O)(=O)[O-].CC[n+]1ccn(C)c1
100 kPa
Settings	viscosity [mPa·s]
298.15 K, x2 = 0.0495	24.95 ± 1.2
323.15 K, x2 = 0.571	25.65 ± 1.1

Cc1ccccc1[N+](=O)[O-] + CN1CCC[C@H]1c1cccnc1
viscosity [mPa·s], 101.33 kPa
Settings	x2 = 0.1058	x2 = 0.2027	x2 = 0.2928	x2 = 0.4027	x2 = 0.4939	x2 = 0.5968	x2 = 0.6894	x2 = 0.7864	x2 = 0.8909
298.15 K	2.229 ± 0.022	2.424 ± 0.024	2.583 ± 0.026	2.775 ± 0.028	3.008 ± 0.03	3.117 ± 0.031	3.335 ± 0.033	3.47 ± 0.035	3.697 ± 0.037
323.15 K	1.405 ± 0.014	1.481 ± 0.015	1.557 ± 0.016	1.625 ± 0.016	1.7 ± 0.017	1.764 ± 0.018	1.909 ± 0.019	1.919 ± 0.019	2.002 ± 0.02

N#CCc1ccccc1 + CNC(C)=O
308.15 K, 101.33 kPa
Settings	viscosity [mPa·s]
x2 = 0.0446	1.599 ± 0.021
x2 = 0.2775	1.791 ± 0.022
x2 = 0.3928	1.896 ± 0.022
x2 = 0.5001	2.049 ± 0.023
x2 = 0.6015	2.252 ± 0.025
x2 = 0.6941	2.456 ± 0.026
x2 = 0.7795	2.662 ± 0.028
x2 = 0.8542	2.87 ± 0.03
x2 = 0.9375	3.109 ± 0.032

CC(C)O + CO
298.15 K, 101.33 kPa
Settings	viscosity [mPa·s]
x2 = 0.0893	1.891 ± 0.034
x2 = 0.225	1.625 ± 0.029
x2 = 0.2835	1.518 ± 0.028
x2 = 0.3984	1.332 ± 0.024
x2 = 0.5178	1.16 ± 0.021
x2 = 0.6024	1.051 ± 0.019
x2 = 0.6852	0.945 ± 0.018
x2 = 0.8272	0.772 ± 0.015
x2 = 0.9058	0.675 ± 0.013

Cc1ccccc1[N+](=O)[O-] + CO
298.15 K, 101 kPa
Settings	viscosity [mPa·s]
x1 = 0.0021	0.5422 ± 0.0056
x1 = 0.0086	0.55 ± 0.0057
x1 = 0.0163	0.5579 ± 0.0058
x1 = 0.0287	0.5756 ± 0.0059
x1 = 0.0599	0.621 ± 0.0063
x1 = 0.0842	0.6536 ± 0.0066
x1 = 0.148	0.7466 ± 0.0075
x1 = 0.1606	0.7653 ± 0.0077
x1 = 0.2493	0.894 ± 0.009
x1 = 0.2659	0.919 ± 0.009
x1 = 0.3726	1.075 ± 0.011
x1 = 0.4073	1.119 ± 0.011
x1 = 0.4479	1.172 ± 0.012
x1 = 0.5681	1.334 ± 0.013
x1 = 0.6575	1.457 ± 0.014
x1 = 0.7936	1.656 ± 0.016
x1 = 0.8543	1.76 ± 0.017
x1 = 0.9606	1.982 ± 0.02

O=C(O)c1cccc([N+](=O)[O-])c1 + CO
viscosity [mPa·s], 101 kPa
Settings	x1 = 0.0362	x1 = 0.0466	x1 = 0.0506	x1 = 0.0604	x1 = 0.09126	x1 = 0.1046
308.15 K	0.8055 ± 0.0082	0.9203 ± 0.0092	0.9556 ± 0.0096	–	1.889 ± 0.05	2.773 ± 0.074
313.15 K	–	–	–	–	1.727 ± 0.046	2.425 ± 0.064
318.15 K	–	–	–	–	1.573 ± 0.042	2.262 ± 0.06
323.15 K	0.646 ± 0.0068	0.7331 ± 0.0077	0.7603 ± 0.0079	0.8441 ± 0.0085	1.421 ± 0.038	2.026 ± 0.054

CCOC(=O)c1ccccc1 + COCCO
viscosity [mPa·s], 101 kPa
Settings	x2 = 0.1045	x2 = 0.199	x2 = 0.2979	x2 = 0.4016	x2 = 0.5007	x2 = 0.6025	x2 = 0.6973	x2 = 0.7982	x2 = 0.8977
298.15 K	1.883 ± 0.16	1.824 ± 0.15	1.803 ± 0.15	1.757 ± 0.15	1.774 ± 0.15	1.752 ± 0.14	1.773 ± 0.15	1.761 ± 0.15	1.783 ± 0.15
303.15 K	1.703 ± 0.14	1.65 ± 0.14	1.631 ± 0.14	1.587 ± 0.13	1.598 ± 0.13	1.581 ± 0.13	1.592 ± 0.13	1.581 ± 0.13	1.602 ± 0.13
308.15 K	1.55 ± 0.13	1.501 ± 0.12	1.48 ± 0.12	1.441 ± 0.12	1.448 ± 0.12	1.431 ± 0.12	1.439 ± 0.12	1.431 ± 0.12	1.444 ± 0.12
